# pIC50: −log10 of the molar value.
# Tested on: 349418-098-R-PDC complex spheroid viability
# Experiment: Anticancer human tumor 349418-098-R-PDC patient-derived lung adenocarcinoma cell line growth inhibition [RAS]
# Conditions: for pIC50: curve of first compound; for viability, T/C: stronger effect = lower value
# How it was run: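 Agents were tested in combination matrices in half-log decrements from a top concentration at or near clinical Cmax (10 microM if undetermined). Targets were multi-cell spheroids of tumour lines plus HUVEC and MSC stromal cells.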
# [1] = second compound 0.000949 µM, first compound 0.0316 µM
# [2] = second compound 0.000949 µM, first compound 0.1 µM
# [3] = second compound 0.000949 µM, first compound 0.316 µM
# [4] = second compound 0.000949 µM, first compound 1 µM
# [5] = second compound 0.003 µM, first compound 0.0316 µM
# [6] = second compound 0.003 µM, first compound 0.1 µM
# [7] = second compound 0.003 µM, first compound 0.316 µM
# [8] = second compound 0.003 µM, first compound 1 µM
# [9] = second compound 0.00949 µM, first compound 0.0316 µM
# [10] = second compound 0.00949 µM, first compound 0.1 µM
# [11] = second compound 0.00949 µM, first compound 0.316 µM
# [12] = second compound 0.00949 µM, first compound 1 µM
# [13] = second compound 0.03 µM, first compound 0.0316 µM
# [14] = second compound 0.03 µM, first compound 0.1 µM
# [15] = second compound 0.03 µM, first compound 0.316 µM
# [16] = second compound 0.03 µM, first compound 1 µM
# [17] = second compound 0.0949 µM, first compound 0.0316 µM
# [18] = second compound 0.0949 µM, first compound 0.1 µM
# [19] = second compound 0.0949 µM, first compound 0.316 µM
# [20] = second compound 0.0949 µM, first compound 1 µM
# [21] = second compound 0.3 µM, first compound 0.0316 µM
# [22] = second compound 0.3 µM, first compound 0.1 µM
# [23] = second compound 0.3 µM, first compound 0.316 µM
# [24] = second compound 0.3 µM, first compound 1 µM
# 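Note: spheroids exposed to compound for seven days before viability readout.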
structure (smiles),measurement,setting,value
CC(=O)OC12COC1CC(O)C1(C)C(=O)C(O)C3=C(C)C(OC(=O)C(O)C(NC(=O)OC(C)(C)C)c4ccccc4)CC(O)(C(OC(=O)c4ccccc4)C21)C3(C)C (centres undefined) + CCn1c(-c2cc(N3CCN(C)CC3)cnc2C(C)OC)c2c3cc(ccc31)-c1csc(n1)CC(NC(=O)C1CC1C)C(=O)N1CCCC(N1)C(=O)OCC(C)(C)C2,pIC50,second compound 0.000949 µM,> 7.50
same,pIC50,second compound 0.003 µM,> 7.50
same,pIC50,second compound 0.00949 µM,> 7.50
same,pIC50,second compound 0.03 µM,> 7.50
same,pIC50,second compound 0.0949 µM,> 7.50
same,pIC50,second compound 0.3 µM,> 7.50
same,"viability, T/C",[1],12.3%
same,"viability, T/C",[2],12.4%
same,"viability, T/C",[3],14.2%
same,"viability, T/C",[4],13.5%
same,"viability, T/C","second compound 0.000949 µM, first compound 3.16 µM",17.1%
same,"viability, T/C","second compound 0.000949 µM, first compound 10 µM",19.4%
same,"viability, T/C",[5],14.3%
same,"viability, T/C",[6],11.3%
same,"viability, T/C",[7],13.8%
same,"viability, T/C",[8],13.4%
same,"viability, T/C","second compound 0.003 µM, first compound 3.16 µM",15.2%
same,"viability, T/C","second compound 0.003 µM, first compound 10 µM",22.9%
same,"viability, T/C",[9],14.9%
same,"viability, T/C",[10],16.2%
same,"viability, T/C",[11],13.8%
same,"viability, T/C",[12],16%
same,"viability, T/C","second compound 0.00949 µM, first compound 3.16 µM",18.8%
same,"viability, T/C","second compound 0.00949 µM, first compound 10 µM",17.1%
same,"viability, T/C",[13],14.4%
same,"viability, T/C",[14],12.8%
same,"viability, T/C",[15],15.9%
same,"viability, T/C",[16],18%
same,"viability, T/C","second compound 0.03 µM, first compound 3.16 µM",18%
same,"viability, T/C","second compound 0.03 µM, first compound 10 µM",19.1%
same,"viability, T/C",[17],11.5%
same,"viability, T/C",[18],14.2%
same,"viability, T/C",[19],14.5%
same,"viability, T/C",[20],14.3%
same,"viability, T/C","second compound 0.0949 µM, first compound 3.16 µM",17.3%
same,"viability, T/C","second compound 0.0949 µM, first compound 10 µM",18%
same,"viability, T/C",[21],15.2%
same,"viability, T/C",[22],12.8%
same,"viability, T/C",[23],17.8%
same,"viability, T/C",[24],16.8%
same,"viability, T/C","second compound 0.3 µM, first compound 3.16 µM",21.4%
same,"viability, T/C","second compound 0.3 µM, first compound 10 µM",18.4%
Nc1ccn(C2OC(CO)C(O)C2(F)F)c(=O)n1 (centres undefined) + CCn1c(-c2cc(N3CCN(C)CC3)cnc2C(C)OC)c2c3cc(ccc31)-c1csc(n1)CC(NC(=O)C1CC1C)C(=O)N1CCCC(N1)C(=O)OCC(C)(C)C2,pIC50,second compound 0.000949 µM,> 8.50
same,pIC50,second compound 0.003 µM,> 8.50
same,pIC50,second compound 0.00949 µM,> 8.50
same,pIC50,second compound 0.03 µM,> 8.50
same,pIC50,second compound 0.0949 µM,> 8.50
same,pIC50,second compound 0.3 µM,> 8.50
same,"viability, T/C","second compound 0.000949 µM, first compound 0.00316 µM",33.4%
same,"viability, T/C","second compound 0.000949 µM, first compound 0.01 µM",6.66%
same,"viability, T/C",[1],5.75%
same,"viability, T/C",[2],4.77%
same,"viability, T/C",[3],5.22%
same,"viability, T/C",[4],4.87%
same,"viability, T/C","second compound 0.003 µM, first compound 0.00316 µM",21.9%
same,"viability, T/C","second compound 0.003 µM, first compound 0.01 µM",6.3%
same,"viability, T/C",[5],5.15%
same,"viability, T/C",[6],4.81%
same,"viability, T/C",[7],4.73%
same,"viability, T/C",[8],4.09%
same,"viability, T/C","second compound 0.00949 µM, first compound 0.00316 µM",24.4%
same,"viability, T/C","second compound 0.00949 µM, first compound 0.01 µM",6.44%
same,"viability, T/C",[9],5.46%
same,"viability, T/C",[10],4.39%
same,"viability, T/C",[11],5.27%
same,"viability, T/C",[12],4.67%
same,"viability, T/C","second compound 0.03 µM, first compound 0.00316 µM",29%
same,"viability, T/C","second compound 0.03 µM, first compound 0.01 µM",9.12%
same,"viability, T/C",[13],4.98%
same,"viability, T/C",[14],5.4%
same,"viability, T/C",[15],5.08%
same,"viability, T/C",[16],5.39%
same,"viability, T/C","second compound 0.0949 µM, first compound 0.00316 µM",43.2%
same,"viability, T/C","second compound 0.0949 µM, first compound 0.01 µM",10.6%
same,"viability, T/C",[17],4.96%
same,"viability, T/C",[18],5.29%
same,"viability, T/C",[19],5.26%
same,"viability, T/C",[20],4.88%
same,"viability, T/C","second compound 0.3 µM, first compound 0.00316 µM",46.8%
same,"viability, T/C","second compound 0.3 µM, first compound 0.01 µM",16.9%
same,"viability, T/C",[21],6.97%
same,"viability, T/C",[22],5.92%
same,"viability, T/C",[23],5.96%
same,"viability, T/C",[24],5.73%

# From PubChem BioAssay AID2060904 (Molecular Pharmacology Branch, DTP, NCI, 2025)
